± gives the standard deviation of the averaged measurements.
What was measured:
Assay in all cases: level (log10 ratio to DMSO vehicle control); higher = higher biomarker level / cell amount than vehicle control
Conditions in all cases: in DMSO
[1] = compound: COC(=O)CCC(F)(F)C(F)(F)C(F)(F)C(F)(F)F [Methyl 2H,2H,3H,3H-perfluoroheptanoate]
Experimental: (§1)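 BioMAP Diversity Plus panel of 12 human primary cell co-culture systems (3C, 4H, LPS, SAg, BT, BF4T, BE3C, CASM3C, HDF3CGF, KF3CT, MyoF, Mphg). Compounds were added 1 h before stimulation and left for 24 h (MyoF 48 h; BT 72 h for soluble read-outs or 6 d for IgG). Biomarkers were read by ELISA, cytotoxicity by SRB, PBMC viability and proliferation by Alamar Blue. Each well value was divided by the mean of 8 DMSO control wells on the same plate and log10 transformed; duplicate blinded samples were tested at 4 concentrations.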

[2] = compound: NCC(F)(F)C(F)(F)C(F)(F)C(F)(F)C(F)(F)C(F)(F)C(F)(F)F [1H,1H-Perfluorooctylamine]
Experimental: as §1

[3] = compound: C=CC(=O)OCC(F)(F)C(F)(F)C(F)(F)C(F)(F)C(F)(F)C(F)(F)C(F)(F)F [1H,1H-Perfluorooctyl acrylate]
Experimental: as §1

[4] = compound: OCC(F)(F)OC(F)(F)C(F)(F)OC(F)(F)CO [1H,1H,8H,8H-Perfluoro-3,6-dioxaoctane-1,8-diol]
Experimental: as §1

[5] = compound: CCN(CCO)S(=O)(=O)C(F)(F)C(F)(F)C(F)(F)C(F)(F)C(F)(F)C(F)(F)C(F)(F)C(F)(F)F [N-Ethyl-N-(2-hydroxyethyl)perfluorooctanesulfonamide]
Experimental: as §1

Perfluoro-1-iodohexane = compound: FC(F)(F)C(F)(F)C(F)(F)C(F)(F)C(F)(F)C(F)(F)I [Perfluoro-1-iodohexane]
Experimental: as §1

[6] = compound: O=C(O)C(F)(F)C(F)(F)C(F)(F)OC(F)(C(F)(F)F)C(F)(F)F [Perfluoro-4-isopropoxybutanoic acid]
Experimental: as §1

Test System | level (log10) ([1]; 6700 nM) | level (log10) ([1]; 20000 nM) | level (log10) ([1]; 60000 nM) | level (log10) ([2]; 6700 nM) | level (log10) ([2]; 20000 nM) | level (log10) ([2]; 60000 nM) | level (log10) ([3]; 6700 nM) | level (log10) ([3]; 20000 nM) | level (log10) ([3]; 60000 nM) | level (log10) ([4]; 6700 nM) | level (log10) ([4]; 20000 nM) | level (log10) ([4]; 60000 nM) | level (log10) ([5]; 6700 nM) | level (log10) ([5]; 20000 nM) | level (log10) (Perfluoro-1-iodohexane; 6700 nM) | level (log10) (Perfluoro-1-iodohexane; 20000 nM) | level (log10) (Perfluoro-1-iodohexane; 60000 nM) | level (log10) ([6]; 6700 nM) | level (log10) ([6]; 20000 nM) | level (log10) ([6]; 60000 nM)
SAg:CXCL9/MIG | -0.0195 ± 0.012 | -0.0095 ± 0.0021 | -0.0065 ± 0.018 | -0.0035 ± 0.005 | -0.019 ± 0.0057 | -0.01 ± 0.0014 | 0.003 ± 0.0099 | -0.009 ± 0.0014 | 0.0015 ± 0.012 | 0.0075 ± 0.0021 | 0 ± 0.0014 | 0.0065 ± 0.0092 | -0.0135 ± 0.005 | -0.0075 ± 0.013 | -0.0205 ± 0.028 | -0.005 ± 0.014 | 0.0045 ± 0.032 | -0.007 ± 0.0099 | 0.002 ± 0.0042 | 0.002 ± 0.0071
BT:sIL-17F | 0.014 ± 0.12 | -0.0295 ± 0.052 | -0.024 ± 0.068 | -0.033 ± 0.0071 | -0.0475 ± 0.0064 | -0.089 ± 0.017 | -0.0975 ± 0.16 | -0.324 ± 0.11 | -0.372 ± 0.063 | 0.045 | -0.0205 ± 0.023 | -0.137 ± 0.096 | -0.0225 ± 0.029 | -0.299 ± 0.037 | 0.0035 ± 0.015 | 0.041 ± 0.12 | 0.0815 ± 0.061 | -0.0935 ± 0.005 | -0.092 ± 0.04 | -0.063 ± 0.045
BE3C:HLA-DR | -0.016 | 0.004 ± 0.0028 | -0.0235 ± 0.03 | -0.001 | -0.0145 ± 0.011 | -0.0065 ± 0.0092 | -0.0055 ± 0.005 | -0.0025 ± 0.005 | 0.0055 ± 0.012 | -0.0065 ± 0.025 | -0.009 ± 0.021 | -0.008 ± 0.0042 | -0.0445 ± 0.013 | -0.115 ± 0.031 | -0.003 ± 0.0028 | 0.003 ± 0.0057 | -0.009 ± 0.0028 | -0.0045 ± 0.025 | -0.0045 ± 0.016 | 0.0105 ± 0.011
BE3C:IL-1alpha | 0.014 ± 0.023 | -0.002 ± 0.013 | 0.025 ± 0.047 | -0.002 ± 0.0028 | -0.0285 ± 0.016 | -0.01 ± 0.0014 | -0.006 ± 0.018 | -0.0095 ± 0.0035 | -0.0105 ± 0.019 | 0.0105 ± 0.032 | 0.0055 ± 0.016 | 0.003 ± 0.0014 | 0.0165 ± 0.005 | -0.0485 ± 0.059 | -0.0155 ± 0.013 | -0.009 ± 0.0014 | -0.0195 ± 0.013 | 0.0065 ± 0.026 | 0.016 ± 0.02 | 0.0325 ± 0.00071
LPS:M-CSF | -0.0005 ± 0.0035 | 0.002 ± 0.011 | 0.0105 ± 0.043 | 0.008 ± 0.024 | -0.015 ± 0.03 | -0.0235 ± 0.025 | -0.001 ± 0.017 | 0.0045 ± 0.023 | 0.009 ± 0.0085 | -0.015 ± 0.0042 | -0.018 ± 0.031 | 0.007 ± 0.067 | 0.0495 ± 0.033 | 0.104 ± 0.041 | 0.0135 ± 0.019 | -0.0055 ± 0.05 | -0.003 ± 0.025 | 0.001 ± 0.0057 | -0.004 ± 0.023 | 0.016 ± 0.0028
LPS:CD141/Thrombomodulin | -0.0375 ± 0.037 | -0.0325 ± 0.0092 | -0.0255 ± 0.0078 | -0.0055 ± 0.025 | -0.0355 ± 0.021 | -0.026 ± 0.034 | -0.0365 ± 0.0021 | -0.052 ± 0.013 | -0.052 ± 0.011 | 0.004 ± 0.021 | 0.021 ± 0.018 | -0.002 ± 0.014 | 0.117 ± 0.0042 | 0.201 | -0.0175 ± 0.0035 | -0.0095 ± 0.025 | -0.0105 ± 0.0092 | 0.0205 ± 0.012 | 0.016 ± 0.013 | 0.0225 ± 0.0035
BT:sIL-6 | 0.0555 ± 0.035 | 0.007 ± 0.018 | -0.033 ± 0.038 | 0.041 ± 0.025 | 0.02 ± 0.05 | -0.1305 ± 0.00071 | -0.088 ± 0.0042 | -0.103 ± 0.031 | -0.242 ± 0.045 | 0.057 ± 0.0099 | 0.0215 ± 0.021 | -0.0445 ± 0.026 | 0.078 ± 0.0014 | -0.049 ± 0.054 | 0.0615 ± 0.0035 | 0.028 ± 0.057 | 0.039 ± 0.045 | 0.019 ± 0.044 | 0.019 ± 0.025 | 0.0035 ± 0.047
LPS:CD142/Tissue Factor | 0.0015 ± 0.067 | 0.0175 ± 0.054 | -0.019 ± 0.0085 | 0.02 ± 0.095 | 0.005 ± 0.054 | -0.0475 ± 0.073 | 0.0425 ± 0.018 | 0.051 ± 0.014 | 0.0525 ± 0.016 | -0.006 ± 0.014 | -0.0155 ± 0.021 | -0.0135 ± 0.0035 | 0.139 ± 0.038 | 0.312 ± 0.037 | -0.018 ± 0.038 | 0.0045 ± 0.0021 | 0.0045 ± 0.011 | 0.019 ± 0.033 | 0.0165 ± 0.011 | -0.016 ± 0.1
LPS:IL-1alpha | -0.0265 ± 0.015 | -0.0185 ± 0.018 | 0.0235 ± 0.016 | -0.04 ± 0.038 | 0.0105 ± 0.022 | -0.0025 ± 0.03 | 0.0165 ± 0.018 | 0.033 ± 0.023 | 0.042 ± 0.025 | -0.0135 ± 0.00071 | -0.022 ± 0.011 | 0.0345 ± 0.0092 | -0.098 ± 0.013 | -0.141 ± 0.026 | -0.048 ± 0.035 | -0.042 ± 0.021 | -0.004 ± 0.0014 | -0.043 ± 0.0071 | -0.0015 ± 0.013 | 0.0205 ± 0.064
BF4T:CCL2/MCP-1 | -0.0105 ± 0.019 | -0.0245 ± 0.039 | -0.002 ± 0.0085 | 0.005 ± 0.02 | -0.013 ± 0.0071 | -0.009 ± 0.033 | -0.0145 ± 0.0021 | -0.0405 ± 0.0078 | -0.027 ± 0.0014 | 0.015 ± 0.028 | 0.012 ± 0.027 | 0.0085 ± 0.00071 | -0.004 ± 0.013 | -0.022 ± 0.0028 | -0.002 ± 0.025 | -0.024 ± 0.025 | -0.0315 ± 0.028 | 0.0235 ± 0.046 | 0.0325 ± 0.084 | 0.045 ± 0.078
4H:CD87/uPAR | 0.0005 ± 0.019 | 0.021 ± 0.042 | 0.0065 ± 0.033 | -0.0235 ± 0.023 | -0.0215 ± 0.033 | 0.003 ± 0.014 | -0.009 ± 0.062 | 0.0005 ± 0.037 | -0.003 ± 0.018 | 0.015 ± 0.044 | 0.0265 ± 0.0035 | 0.0065 ± 0.044 | -0.037 ± 0.037 | -0.088 ± 0.024 | -0.0035 ± 0.053 | 0.017 ± 0.062 | 0.036 ± 0.12 | -0.004 ± 0.03 | -0.013 ± 0.0028 | -0.0075 ± 0.0035
BF4T:CD90 | -0.009 ± 0.011 | -0.0045 ± 0.0064 | -0.032 ± 0.013 | 0.015 ± 0.021 | 0.009 ± 0.0014 | 0.0065 ± 0.012 | -0.013 ± 0.014 | -0.003 ± 0.0028 | -0.004 ± 0.031 | -0.008 ± 0.027 | -0.008 ± 0.011 | -0.0015 ± 0.011 | -0.013 ± 0.0099 | -0.0145 ± 0.005 | -0.0085 ± 0.0035 | -0.002 ± 0.018 | -0.002 ± 0.011 | -0.002 ± 0.0057 | -0.025 ± 0.0028 | -0.0075 ± 0.012
4H:CD62P/P-selectin | -0.0325 ± 0.071 | -0.017 ± 0.064 | 0.0135 ± 0.053 | 0.0025 ± 0.019 | -0.028 ± 0.021 | -0.0525 ± 0.047 | 0.038 ± 0.05 | -0.0155 ± 0.018 | -0.047 ± 0.023 | 0.0225 ± 0.091 | 0.034 ± 0.055 | 0.0615 ± 0.046 | -0.079 ± 0.0014 | -0.142 ± 0.044 | 0.034 ± 0.028 | -0.012 ± 0.11 | 0.0625 ± 0.14 | 0.001 ± 0.021 | 0.0165 ± 0.012 | 0.048 ± 0.033

Reference: the supplement of paper PMC10331698
